# According to patent US10940139B2, “Compounds that interact with the Ras superfamily for the treatment of cancers, inflammatory diseases, rasopathies, and fibrotic disease” (Shy Therapeutics LLC, priority 2017, dated 2021):
# Where two headings read alike, the source gives them in different places.
# Experiments:
# [1] = target: KRas G12C/Q61H double mutant (Homo sapiens (Human), UniProt P01116, G12C/Q61H); test: Ras GTP binding domain inhibition assay (labeled GTP); conditions: 20 μM compound; read-out: % Inhibition at 20 μM KRas G12C Q61H
# In short: (§1)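 Fluorescence read-out of Cy3-/Cy5-GTP remaining bound to nickel-immobilized His-KRas after washes. Protein was coated overnight at 4° C, then exposed to compound for 3 h at room temperature before a 45 min labeled-GTP incubation.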
# [2] = target: KRas G12D/Q61H double mutant (Homo sapiens (Human), UniProt P01116, G12D/Q61H); test: as above
# In short: as §1
# [3] = target: KRas Q61H mutant (Homo sapiens (Human), UniProt P01116, Q61H); test: as above; conditions: 20 μM compound; read-out: % Inhibition at 20 μM KRas Q61H
# In short: as §1
# [4] = target: KRas G12D mutant protein (Homo sapiens (Human), UniProt P01116, G12D); test: as above; conditions: at 20 μM; read-out: KRas G12D % Inh.
# [5] = target: Rac-1 (Homo sapiens (Human), UniProt P63000); test: Rac inhibition assay (labeled GTP); type: binding; conditions: read-out: Rac-1 % Inh.
# [6] = target: Rho-A (Homo sapiens (Human), UniProt P61586); test: Rho inhibition assay (labeled GTP); type: binding; conditions: read-out: Rho-A % Inh.
# [7] = at 20 μM, read-out: KRas G12D Q61H % Inh.
# Chain of KRas G12D mutant protein (P01116-2 other isoform, or with tags, fused parts or gaps G12D): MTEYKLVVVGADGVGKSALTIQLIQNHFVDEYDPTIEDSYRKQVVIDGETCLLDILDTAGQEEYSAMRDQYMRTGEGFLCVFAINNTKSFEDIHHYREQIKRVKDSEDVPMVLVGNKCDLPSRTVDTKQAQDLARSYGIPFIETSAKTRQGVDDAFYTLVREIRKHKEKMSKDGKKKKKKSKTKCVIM
# Chain of Rho-A (P61586 whole entry): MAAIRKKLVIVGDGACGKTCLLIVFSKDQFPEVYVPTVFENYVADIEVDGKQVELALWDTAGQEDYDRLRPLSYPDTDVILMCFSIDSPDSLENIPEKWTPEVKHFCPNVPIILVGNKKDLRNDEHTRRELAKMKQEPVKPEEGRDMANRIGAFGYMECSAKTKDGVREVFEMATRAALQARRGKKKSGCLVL
# Chain of KRas G12D/Q61H double mutant (P01116-2 other isoform, or with tags, fused parts or gaps G12D/Q61H): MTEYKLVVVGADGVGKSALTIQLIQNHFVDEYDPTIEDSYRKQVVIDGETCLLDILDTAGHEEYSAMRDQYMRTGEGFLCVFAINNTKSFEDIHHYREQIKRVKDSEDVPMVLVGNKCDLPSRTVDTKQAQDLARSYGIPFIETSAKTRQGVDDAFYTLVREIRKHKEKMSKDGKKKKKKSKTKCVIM
# Chain of KRas G12C/Q61H double mutant (P01116-2 other isoform, or with tags, fused parts or gaps G12C/Q61H): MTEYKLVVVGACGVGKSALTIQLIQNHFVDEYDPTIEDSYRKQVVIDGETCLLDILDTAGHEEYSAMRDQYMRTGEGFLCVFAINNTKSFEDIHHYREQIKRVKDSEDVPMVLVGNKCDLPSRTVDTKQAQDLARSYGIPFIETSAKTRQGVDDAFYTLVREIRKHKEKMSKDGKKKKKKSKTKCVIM
# Chain of KRas Q61H mutant (P01116-2 other isoform, or with tags, fused parts or gaps Q61H): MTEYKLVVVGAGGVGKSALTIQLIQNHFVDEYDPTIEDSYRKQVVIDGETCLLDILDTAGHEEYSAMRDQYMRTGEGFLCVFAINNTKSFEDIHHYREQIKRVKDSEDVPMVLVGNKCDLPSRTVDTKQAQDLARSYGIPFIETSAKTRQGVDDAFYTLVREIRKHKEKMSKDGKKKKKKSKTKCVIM
inhibition at 20 µM [1] [%],"inhibition at 20 µM ([2]; 20 μM compound, read-out: % Inhibition at 20 μM KRas G12D Q61H) [%]",inhibition at 20 µM [3] [%],inhibition at 20 µM [4] [%],"inhibition at 20 µM [2, 7] [%]",inhibition at 20 µM [5] [%],inhibition at 20 µM [6] [%],SMILES
25 to 50,25 to 50,51 to 75,,,,,Oc1nc(-c2ccccn2)nc2c(-c3ccccc3)csc12 [drawing 2694]
,,,51 to 75,51 to 75,76 to 100,76 to 100,Cc1cnccc1-c1csc2c(O)nc(-c3ccccn3)nc12 [drawing 3760]
,,,76 to 100,51 to 75,76 to 100,76 to 100,O=C(CCn1ccnc1)Nc1nc(-c2ccccn2)nc2sccc12 [drawing 3761]
,,,51 to 75,51 to 75,76 to 100,76 to 100,O=C(CCc1nn[nH]n1)Nc1nc(-c2ccccn2)nc2sccc12 [drawing 3762]
,,,51 to 75,51 to 75,76 to 100,76 to 100,O=C(CCc1cncnc1)Nc1nc(-c2ccccn2)nc2sccc12 [drawing 3763]
,,,51 to 75,51 to 75,51 to 75,51 to 75,Oc1nc(-c2ccccn2)nc2c(-c3cc(F)cc(F)c3)csc12 [drawing 3772]
,,,51 to 75,25 to 50,51 to 75,25 to 50,Cc1sc2c(O)nc(-c3ccccn3)nc2c1-c1cccnc1 [drawing 3786]
,,,51 to 75,51 to 75,76 to 100,76 to 100,COc1cnc(-c2ccccn2)nc1O [drawing 3787]
,,,25 to 50,51 to 75,76 to 100,51 to 75,COc1nc(-c2ccccn2)nc2c(C3CCCC3)csc12 [drawing 3789]
,,,25 to 50,51 to 75,76 to 100,51 to 75,Cc1c(C(=O)O)sc2c(O)nc(-c3ccccn3)nc12 [drawing 3794]
,,,51 to 75,51 to 75,51 to 75,76 to 100,Oc1nc(-c2ccccn2)nc2c(CC3CCNCC3)csc12 [drawing 3805]
,,,51 to 75,51 to 75,76 to 100,76 to 100,CC(C)Cc1csc2c(O)nc(-c3ccccn3)nc12 [drawing 3813]
,,,51 to 75,51 to 75,76 to 100,76 to 100,COc1cnc(-c2cn(C)cn2)nc1O [drawing 3815]
,,,51 to 75,51 to 75,51 to 75,25 to 50,Cc1sc2c(O)nc(-c3ccccn3)nc2c1-c1ccncc1 [drawing 3816]
,,,76 to 100,51 to 75,76 to 100,76 to 100,Oc1nc(-c2ccccn2)nc2c(-c3cc(CN4CCCC4)ccc3F)csc12 [drawing 3821]
,,,51 to 75,51 to 75,76 to 100,76 to 100,Cc1nn(C(C)C)cc1-c1csc2c(O)nc(-c3ccccn3)nc12 [drawing 3825]
,,,51 to 75,51 to 75,51 to 75,51 to 75,Cc1sc2c(O)nc(-c3ccccn3)nc2c1C(=O)N1CCN(c2ccccc2)CC1C (stereo not shown) [drawing 3828]

inhibition at 20 µM [1] [%],"inhibition at 20 µM ([2]; 20 μM compound, read-out: % Inhibition at 20 μM KRas G12D Q61H) [%]",inhibition at 20 µM [3] [%],inhibition at 20 µM [4] [%],"inhibition at 20 µM [2, 7] [%]",inhibition at 20 µM [5] [%],inhibition at 20 µM [6] [%],SMILES
,,,76 to 100,76 to 100,76 to 100,76 to 100,COc1cnc(-c2nccn2C)nc1O [drawing 3831]
,,,51 to 75,51 to 75,76 to 100,76 to 100,Nc1cccc(-c2csc3c(O)nc(-c4ccccn4)nc23)n1 [drawing 3832]
,,,51 to 75,51 to 75,76 to 100,76 to 100,Cc1sc2c(O)nc(-c3ccccn3)nc2c1-c1ccccc1Cl [drawing 3833]
,,,51 to 75,51 to 75,76 to 100,76 to 100,COc1cnc(-c2cnc[nH]2)nc1O [drawing 3834]
,,,51 to 75,51 to 75,76 to 100,76 to 100,Oc1nc(-c2ccccn2)nc2c(CC3CCNC3)csc12 (stereo not shown) [drawing 3844]
,,,25 to 50,25 to 50,51 to 75,51 to 75,O=c1[nH]c(-c2ccccn2)nc2c([C@@H]3O[C@H](CO)[C@@H](O)[C@H]3O)csc12 [drawing 3845]
,,,51 to 75,76 to 100,76 to 100,76 to 100,COCCNc1nc(-c2cn(C)cn2)nc2sc(-c3ccncc3)c(-c3ccccc3)c12 [drawing 3848]
,,,25 to 50,25 to 50,25 to 50,51 to 75,COc1nc(-c2cn(C)cn2)nc2sc(-c3ccncc3)c(-c3ccccc3)c12 [drawing 3849]
,,,25 to 50,51 to 75,51 to 75,76 to 100,OCC1(c2ccc(-c3nc(-c4ccccn4)nc(O)c3Oc3ccccc3)cc2)CC1 [drawing 3852]
,,,51 to 75,51 to 75,76 to 100,76 to 100,COCCNc1nc(-c2ccccn2)nc2c1c(-c1ccccc1)nn2-c1ccccn1 [drawing 3856]
,,,51 to 75,51 to 75,51 to 75,51 to 75,Oc1nc(-c2ccccn2)nc2c1c(-c1ccccc1)nn2-c1ccccn1 [drawing 3857]
,,,51 to 75,51 to 75,76 to 100,76 to 100,COc1nc(-c2ccccn2)nc2c1c(-c1ccccc1)nn2-c1ccccn1 [drawing 3858]
,,,25 to 50,51 to 75,51 to 75,51 to 75,COCC(C)Nc1nc(-c2ccccn2)nc2sc(-c3ccncc3)c(-c3ccccc3)c12 (stereo not shown) [drawing 3859]
,,,76 to 100,51 to 75,51 to 75,76 to 100,COc1c(O)nc(-c2ccccn2)nc1Oc1cccc(C(F)(F)F)c1 [drawing 3875]
,,,51 to 75,51 to 75,51 to 75,51 to 75,Oc1nc(-c2ccccn2)nc(Oc2cccc(C(F)(F)F)c2)c1O [drawing 3876]
,,,51 to 75,51 to 75,25 to 50,51 to 75,Oc1nc(-c2ccccn2)nc2cc(-c3ccncc3)sc12 [drawing 3879]
,,,51 to 75,51 to 75,25 to 50,51 to 75,Oc1nc(-c2ccccn2)nc2cc(-c3ccccc3)sc12 [drawing 3880]

SMILES,inhibition at 20 µM [1] [%],"inhibition at 20 µM ([2]; 20 μM compound, read-out: % Inhibition at 20 μM KRas G12D Q61H) [%]",inhibition at 20 µM [3] [%],inhibition at 20 µM [4] [%],"inhibition at 20 µM [2, 7] [%]",inhibition at 20 µM [5] [%],inhibition at 20 µM [6] [%]
Oc1nc(-c2ccccn2)nc2c(-c3ccccn3)csc12 [drawing 3768],,,,25 to 50,1 to 25,51 to 75,51 to 75
CN1CCN(c2nc(-c3ccccn3)nc3scc(C(=O)NCCc4cnc(O)nc4)c23)CC1 [drawing 3771],,,,51 to 75,25 to 50,51 to 75,51 to 75
CN(C)Cc1ccc(F)c(-c2csc3c(O)nc(-c4ccccn4)nc23)c1 [drawing 3773],,,,51 to 75,25 to 50,51 to 75,76 to 100
Cc1sc2c(O)nc(-c3ccccn3)nc2c1-c1ccccc1 [drawing 3777],,,,51 to 75,51 to 75,51 to 75,51 to 75
Oc1nc(-c2ccccn2)nc2c(C3CCC3)csc12 [drawing 3797],,,,51 to 75,51 to 75,76 to 100,76 to 100
CC(C)Oc1cnc(-c2ccccn2)nc1O [drawing 3800],,,,51 to 75,51 to 75,76 to 100,76 to 100
CC(C)c1csc2c(O)nc(-c3ccccn3)nc12 [drawing 3806],,,,51 to 75,51 to 75,51 to 75,51 to 75
COc1ccc(CCC(=O)Nc2nc(-c3ccccn3)nc3sccc23)cn1 [drawing 3812],,,,51 to 75,51 to 75,76 to 100,76 to 100
Oc1nc(-c2ccccn2)nc2c(C3CCCC3)csc12 [drawing 3814],,,,51 to 75,51 to 75,76 to 100,76 to 100
Oc1cccc(-c2csc3c(O)nc(-c4ccccn4)nc23)n1 [drawing 3817],,,,51 to 75,51 to 75,76 to 100,76 to 100
